The values below come from US20230136562A1, “SPIROUREA DERIVATIVES” (Idorsia Pharmaceuticals Ltd, priority 2020, published 2023).

Assay [1] concerns primary neuronal cultures from embryonic rat brains. As to the kind of experiment: Rat oscillation assay (FLIPR, neuronal calcium oscillations). The assay is classed as cell-based. In short, it runs like this: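 Cortical neurons from E18 Wistar rat embryos, cultured 8–10 days at high density, loaded with 1 μM Fluo-8 AM; calcium oscillations recorded by FLIPR once per second in Mg-free HBSS with 2 mM CaCl2, 20 mM HEPES, pH 7.4. Two acquisitions ("Acute", 500 sec, compound added at 250 sec; "20 min"), ± Kv7 blocker XE-991.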

Another assay has as its system DBA/2J mice. As to the kind of experiment: Audiogenic seizure-sensitive mouse model of generalized convulsive seizures (AGS). The conditions noted are these: challenge 1 h, 90% MC 0.5% + 10% PEG400, read-out: Seizure stage [% vs. vehicle]; for change in vivo at 30 mg/kg: 30 mg/kg po. The class given is in vivo. The method, then: (§1) Formulation and Administration.
(§2) Compounds were formulated in a 10% polyethylene glycol 400 (PEG 400)/90% aqueous solution of 0.5% methylcellulose (MC 0.5%). Firstly drugs are dissolved in PEG 400 and then suspended in MC 0.5% for oral gavage at X mg/5 mL/kg (X see table).
Audiogenic Seizure-Sensitive Mouse Model of Generalized Convulsive Seizures
1. Procedure: Following two days of acclimatisation, auditory seizures are induced in male juvenile DBA/2J mice (22-24 days old). Each mouse is placed individually in the exposure chamber, an hemispheric acrylic glass dome (diameter: 50 cm) within a sound-attenuated box. The sound-attenuated box is equipped with two house lights and a camera system (Fire-I from Unibrain) in order to observe and record the behavioral seizure response. After 60 seconds of habituation, the stimulus, a mixed frequency tone of 15-20 kHz at 110 dB (SASLab Lite, Avisoft Bioacoustics), is played from a speaker that is placed on the top center of the dome. […] Seizures are classified as following: stage 0, normal behavior; stage 1, wild running; stage 2, generalized clonus; stage 3, tonic extension of the hind limbs.
2. Compounds testing: Acute compound effects on audiogenic generalized convulsive seizures are evaluated in independent groups of 8-10 mice randomly assigned. Following oral administration of compound or vehicle, the maximum seizure stage during sound exposure is assessed. Compounds are given 1 hour before exposure to the stimulus. Each mouse is exposed to the auditory stimulus only once and euthanized afterwards by CO2 inhalation.

Another assay relates to Wistar rats. As to the kind of experiment: Amygdala-kindling rat model. The assay is classed as in vivo. The conditions noted are these: 1 mg/kg po, time of challenge 30 min, HCl salt, formulation 90% MC 0.5% + 10% PEG400. Here is the method:
as §1, §2
Amygdala-Kindling Rat Model:
1. Procedure: Adult male Wistar rats (Harlan Laboratories, Netherlands, or Charles Rivers, Germany; body weight 300-350 g) were stereotaxically implanted with twisted bipolar plastic-coated stainless steel electrode (MS333-2-BIU 10 mm, Plastics One) into the right basolateral amygdala under isoflurane anesthesia. To place the electrode, trepanations were made in the skull and the electrode was lowered into the right basolateral amygdala (from bregma: anteriorposterior (AP): −2.5 mm, medio-lateral (ML): −3.5 mm, dorso-ventral (DV): −8.6 mm; α=10°) and secured to the skull with screws and dental acrylate. After one week of recovery, they were handled daily and habituated over one week to the kindling set-up. Kindling procedure: For a kindling session each rat was placed individually into a smooth acrylic plastic, round-bottomed bowl (Ø 36 cm, height 36 cm, BASi movement-responsive caging system) and its intracranial implanted electrode was connected to the stimulator (STG4008, Multichannel Systems GmbH) and the recording devices (PowerLab 8/35, ADInstruments Ltd) via a cable (335-340/3 (C), Plastics One). For the kindling procedure, each rat was exposed once daily to an electrical stimulation and the behavioral symptoms of the evoked seizure were observed and classified according to the modified Racine scale (stage 0, arrest, wet dog shakes, normal behaviour; stage 1, facial twitches: nose, lips, eyes; stage 2, chewing, head nodding; stage 3, forelimb clonus; stage 4, rearing, falling on forelimbs; stage 5, rearing, falling on side or back, rolling). The electrical stimulus consists of a 1s-train of 50 Hz square-wave biphasic pulses of 1-ms duration at an intensity of 400 μA (suprathreshold intensity). […] Data Scoring and analysis. The duration of electroencephalographic seizures (afterdischarge, AD) was recorded using LabChart7 Pro software (ADlnstruments Ltd). Simultaneously, videos were recorded to evaluate seizure stage (SS).
2. Compound testing: Acute drug effects were evaluated in groups of 6-8 fully kindled rats in a randomized cross-over design with 48 h between drug and vehicle applications. Following oral administration of drug or vehicle, drug testing included determination of the afterdischarge threshold (the minimal stimulation intensity necessary to evoke an afterdischarge (electroencephalographically measured neuronal hyper-synchronous activity with an amplitude 2-times higher than baseline amplitude and a frequency of ≥1 Hz) of at least 3 sec duration) and monitoring electroencephalographic and behavioral correlates of the evoked seizure at ADT (afterdischarge threshold), including AD duration and SS, by a experimenter blind to treatment assignment.

The mark [2] stands for this setting: Rattus norvegicus, 20 min, AUC of fluorescence measured 20 min after compound addition, read-out: FLIPR: IC50 [nM] 20 min.
[3] abbreviates: Rattus norvegicus, Acute phase, ratio of AUC fluorescence before and after compound addition, read-out: FLIPR: IC50 [nM] acute.

Where a name gives a salt, the structure may show the parent alone. Read-outs that look alike come from different tables or passages of the source.

In the case of `COCC(Oc1cc(CNC(=O)NC2CC3(CCC3)C2)ccn1)C(F)(F)F` (single isomer, unassigned) [Example 172, 1-Spiro[3.3]hept-2-yl-3-[2-(2,2,2-trifluoro-1-methoxymethyl-ethoxy)-pyridin-4-ylmethyl]-urea], the IC50 (usually the concentration at which inhibition is half-maximal) is 37 nM in assay [1] (AUC of fluorescence measured 20 min after compound addition, read-out: FLIPR: IC50 [nM] 20 min); 38 nM in assay [1] (Acute phase, ratio of AUC fluorescence before and after compound addition, read-out: FLIPR: IC50 [nM] acute). In the assay with DBA/2J mice, the change in vivo at 30 mg/kg is -81%.
As for `O=C(NCc1cccc(OC(F)F)c1)NC1CC2(CC2)C1` [Example 155, 1-(3-Difluoromethoxy-benzyl)-3-spiro[2.3]hex-5-yl-urea], the IC50 in assay [1] (setting [2]) is 163 nM; in assay [1] (setting [3]), 151 nM. For the same compound, the change in vivo at 30 mg/kg in the assay with DBA/2J mice is -100%.
In the case of `C[C@H](NC(=O)NC1CC2(CCC2)C1)c1cc(OCC(F)(F)F)ncn1` (single isomer, unassigned) [Example 182], the results for the IC50 in assay [1] (setting [2]) and in assay [1] (setting [3]) were 13 nM and 11 nM, respectively. For the same compound, in the assay with DBA/2J mice (5 mg/kg po), the change in vivo at 5 mg/kg was -100%.
On to `CC(NC(=O)NC1CC2(CCC2)C1)c1ccnc(OC(F)F)c1` (racemic) [Example 100 (HCl salt), (±)-1-[1-(2-Difluoromethoxy-pyridin-4-yl)-ethyl]-3-spiro[3.3]hept-2-yl-urea], for which the change in vivo at 33 mg/kg with DBA/2J mice (33 mg/kg po) is -71%.
For `C[C@H](NC(=O)NC1CC2(CCC2)C1)c1ccnc(OC(F)F)c1` (single isomer, unassigned) [Example 168], the IC50 turned out to be 3 nM in assay [1] (setting [2]) and 3.7 nM in assay [1] (setting [3]). In addition, the “AD duration [% vs veh]” value with Wistar rats is on record as −84 % vs veh. Besides, in the assay with Wistar rats, the “Seizure stage [% vs veh]” value is −58 % vs veh.
For the compound `O=C(NCc1ccnc(OCC(F)(F)F)c1)NC1CC2(C1)CC(F)(F)C2` [Example 160, 1-(6,6-Difluoro-spiro[3.3]hept-2-yl)-3-[2-(2,2,2-trifluoro-ethoxy)-pyridin-4-ylmethyl]-urea], the IC50 in assay [1] (setting [2]) worked out at 253 nM; in assay [1] (setting [3]), 83 nM. In addition, the change in vivo at 30 mg/kg in the assay on DBA/2J mice is -100%.
The like results for `O=C(NCc1ccnc(OCC(F)(F)F)c1)NC1CC2(CC2)C1` [Example 159, 1-Spiro[2.3]hex-5-yl-3-[2-(2,2,2-trifluoro-ethoxy)-pyridin-4-ylmethyl]-urea] were, in that order, 47 nM, 26 nM and -100%.
